Measured values from ChEMBL document CHEMBL1764991, “Epiafzelechin from the root bark of Cassia sieberiana: detection by DART mass spectrometry, spectroscopic characterization, and antioxidant properties” (J Nat Prod, 2011).
Converted amounts (≈) assume the structure as drawn.

Assays:
[1] = system: Radical scavenging activity; test: Antioxidant activity assessed as DPPH radical scavenging activity; assay type: functional
[2] = Antioxidant activity assessed as ferric ion reducing activity using fe3+-TPTZ at 20 ug/ml by FRAP assay; assay type: functional
[3] = Antioxidant activity assessed as ferric ion reducing activity using fe3+-TPTZ at 40 ug/ml by FRAP assay; assay type: functional
[4] = Antioxidant activity assessed as ferric ion reducing activity using fe3+-TPTZ at 80 ug/ml by FRAP assay; assay type: functional
[5] = system: Liver; test: Inhibition of H2O2-induced lipid peroxidation in rat liver homogenates assessed as malondialdehyde level after 4 hrs; assay type: functional, tissue-based
[6] = system: Liver; test: Inhibition of H2O2-induced lipid peroxidation in rat liver homogenates assessed as malondialdehyde level at 80 ug/ml after 4 hrs; assay type: functional, tissue-based
[7] = system: Liver; test: Inhibition of H2O2-induced lipid peroxidation in rat liver homogenates assessed as malondialdehyde level at 32 ug/ml after 4 hrs; assay type: functional, tissue-based

Structure (SMILES) | IC50 [1] | Activity [2] | Activity [3] | Activity [4] | Activity [5] | inhibition [6] | inhibition [7]
Oc1ccc([C@H]2Oc3cc(O)cc(O)c3C[C@H]2O)cc1 [EPIAFZELECHIN (2R,3R)(-)] | 9.25 µg/mL (≈ 33.7 µM) | 493 µM/L | 978 µM/L | 1510 µM/L | 14.4 nM/ml | 81.8% | –
O=c1c(O)c(-c2ccc(O)c(O)c2)oc2cc(O)cc(O)c12 [QUERCETIN] | 23.53 µg/mL (≈ 77.9 µM) | – | – | – | 19.4 nM/ml | – | 75.4%
